According to ChEMBL document CHEMBL4507266, “Data for DCP probe BAY-784” (2021):

Legend:
[1] = system: Tyrosine-protein kinase ABL1 (Homo sapiens), P00519 [F317L]; settings: Compound concentration 1000.0 nM
[2] = system: Tyrosine-protein kinase ABL1 (Homo sapiens), P00519 [T315I]; settings: Compound concentration 1000.0 nM
[3] = biological target: Aurora kinase B (Homo sapiens) (UniProt Q96GD4); settings: Compound concentration 1000.0 nM
[4] = biological target: Serine/threonine-protein kinase BRSK2 (Homo sapiens) (UniProt Q8IWQ3); settings: Compound concentration 1000.0 nM
[5] = biological target: Calcium/calmodulin-dependent protein kinase kinase 2 (Homo sapiens) (UniProt Q96RR4); settings: Compound concentration 1000.0 nM
[6] = biological target: Cyclin-dependent kinase-like 2 (Homo sapiens) (UniProt Q92772); settings: Compound concentration 1000.0 nM
[7] = biological target: Citron Rho-interacting kinase (Homo sapiens) (UniProt O14578); settings: Compound concentration 1000.0 nM
[8] = biological target: Dual specificity protein kinase CLK1 (Homo sapiens) (UniProt P49759); settings: Compound concentration 1000.0 nM
[9] = biological target: Dual specificity protein kinase CLK4 (Homo sapiens) (UniProt Q9HAZ1); settings: Compound concentration 1000.0 nM
[10] = biological target: Casein kinase I isoform alpha-like (Homo sapiens) (UniProt Q8N752); settings: Compound concentration 1000.0 nM
[11] = biological target: Casein kinase I isoform gamma-2 (Homo sapiens) (UniProt P78368); settings: Compound concentration 1000.0 nM
[12] = biological target: Death-associated protein kinase 1 (Homo sapiens) (UniProt P53355); settings: Compound concentration 1000.0 nM
[13] = biological target: Death-associated protein kinase 2 (Homo sapiens) (UniProt Q9UIK4); settings: Compound concentration 1000.0 nM
[14] = biological target: Serine/threonine-protein kinase 17A (Homo sapiens) (UniProt Q9UEE5); settings: Compound concentration 1000.0 nM
[15] = system: Epidermal growth factor receptor (Homo sapiens), P00533 [L858R]; settings: Compound concentration 1000.0 nM
[16] = biological target: Ephrin type-B receptor 2 (Homo sapiens) (UniProt P29323); settings: Compound concentration 1000.0 nM
[17] = biological target: Focal adhesion kinase 1 (Homo sapiens) (UniProt Q05397); settings: Compound concentration 1000.0 nM
[18] = biological target: Fibroblast growth factor receptor 2 (Homo sapiens) (UniProt P21802); settings: Compound concentration 1000.0 nM
[19] = system: Receptor-type tyrosine-protein kinase FLT3 (Homo sapiens), P36888 [D835V]; settings: Compound concentration 1000.0 nM
[20] = biological target: Mitogen-activated protein kinase 9 (Homo sapiens) (UniProt P45984); settings: Compound concentration 1000.0 nM
[21] = biological target: Mast/stem cell growth factor receptor Kit (Homo sapiens) (UniProt P10721); settings: Compound concentration 1000.0 nM
[22] = system: Mast/stem cell growth factor receptor Kit (Homo sapiens), P10721 [V559D,V654A]; settings: Compound concentration 1000.0 nM
[23] = biological target: MAP/microtubule affinity-regulating kinase 3 (Homo sapiens) (UniProt P27448); settings: Compound concentration 1000.0 nM
[24] = biological target: Maternal embryonic leucine zipper kinase (Homo sapiens) (UniProt Q14680); settings: Compound concentration 1000.0 nM
[25] = biological target: MAP kinase-interacting serine/threonine-protein kinase 1 (Homo sapiens) (UniProt Q9BUB5); settings: Compound concentration 1000.0 nM
[26] = biological target: Serine/threonine-protein kinase MRCK alpha (Homo sapiens) (UniProt Q5VT25); settings: Compound concentration 1000.0 nM
[27] = biological target: Myosin light chain kinase 2, skeletal/cardiac muscle (Homo sapiens) (UniProt Q9H1R3); settings: Compound concentration 1000.0 nM
[28] = biological target: Myosin-IIIa (Homo sapiens) (UniProt Q8NEV4); settings: Compound concentration 1000.0 nM
[29] = biological target: Serine/threonine-protein kinase Nek11 (Homo sapiens) (UniProt Q8NG66); settings: Compound concentration 1000.0 nM
[30] = biological target: Mitogen-activated protein kinase 12 (Homo sapiens) (UniProt P53778); settings: Compound concentration 1000.0 nM
[31] = biological target: Serine/threonine-protein kinase PAK 1 (Homo sapiens) (UniProt Q13153); settings: Compound concentration 1000.0 nM
[32] = biological target: Serine/threonine-protein kinase PAK 3 (Homo sapiens) (UniProt O75914); settings: Compound concentration 1000.0 nM
[33] = biological target: Cyclin-dependent kinase 2 homolog (Plasmodium falciparum (isolate 3D7)) (UniProt P61075); settings: Compound concentration 1000.0 nM
[34] = biological target: 1-phosphatidylinositol 3-phosphate 5-kinase (Homo sapiens) (UniProt Q9Y2I7); settings: Compound concentration 1000.0 nM
[35] = biological target: Phosphatidylinositol 5-phosphate 4-kinase type-2 gamma (Homo sapiens) (UniProt Q8TBX8); settings: Compound concentration 1000.0 nM
[36] = biological target: Membrane-associated tyrosine- and threonine-specific cdc2-inhibitory kinase (Homo sapiens) (UniProt Q99640); settings: Compound concentration 1000.0 nM
[37] = biological target: Ribosomal protein S6 kinase alpha-4 (Homo sapiens) (UniProt O75676); settings: Compound concentration 1000.0 nM
[38] = biological target: Ribosomal protein S6 kinase alpha-5 (Homo sapiens) (UniProt O75582); settings: Compound concentration 1000.0 nM
[39] = biological target: Ribosomal protein S6 kinase beta-1 (Homo sapiens) (UniProt P23443); settings: Compound concentration 1000.0 nM
[40] = biological target: Serine/threonine-protein kinase SIK2 (Homo sapiens) (UniProt Q9H0K1); settings: Compound concentration 1000.0 nM
[41] = biological target: Non-receptor tyrosine-protein kinase TNK1 (Homo sapiens) (UniProt Q13470); settings: Compound concentration 1000.0 nM
[42] = biological target: Serine/threonine-protein kinase TNNI3K (Homo sapiens) (UniProt Q59H18); settings: Compound concentration 1000.0 nM
[43] = biological target: Mitogen-activated protein kinase kinase kinase 20 (Homo sapiens) (UniProt Q9NYL2); settings: Compound concentration 1000.0 nM
[44] = biological target: Muscarinic acetylcholine receptor M3 (Homo sapiens) (UniProt P20309); settings: Compound concentration 10.0 uM
[45] = biological target: Sigma intracellular receptor 2 (Homo sapiens, UniProt Q5BJF2); settings: Compound concentration 10.0 uM

Sequence of Muscarinic acetylcholine receptor M3 (Homo sapiens) (P20309 whole entry, looked up): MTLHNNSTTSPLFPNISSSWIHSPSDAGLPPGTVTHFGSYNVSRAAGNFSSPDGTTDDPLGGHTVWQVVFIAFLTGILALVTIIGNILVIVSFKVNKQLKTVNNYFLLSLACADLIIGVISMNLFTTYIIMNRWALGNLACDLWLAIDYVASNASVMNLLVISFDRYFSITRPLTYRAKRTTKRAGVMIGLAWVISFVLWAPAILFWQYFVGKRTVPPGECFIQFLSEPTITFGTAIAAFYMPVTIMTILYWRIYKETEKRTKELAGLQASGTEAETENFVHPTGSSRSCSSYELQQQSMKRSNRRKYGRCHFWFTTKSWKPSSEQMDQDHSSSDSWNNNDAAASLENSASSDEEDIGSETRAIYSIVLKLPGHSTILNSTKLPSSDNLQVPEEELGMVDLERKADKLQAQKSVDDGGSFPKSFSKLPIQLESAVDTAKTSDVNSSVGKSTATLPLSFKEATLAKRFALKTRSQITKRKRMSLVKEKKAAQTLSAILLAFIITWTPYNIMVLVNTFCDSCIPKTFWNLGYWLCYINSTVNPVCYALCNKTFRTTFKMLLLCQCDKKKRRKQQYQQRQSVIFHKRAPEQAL
Sequence of Non-receptor tyrosine-protein kinase TNK1 (Homo sapiens) (Q13470 whole entry): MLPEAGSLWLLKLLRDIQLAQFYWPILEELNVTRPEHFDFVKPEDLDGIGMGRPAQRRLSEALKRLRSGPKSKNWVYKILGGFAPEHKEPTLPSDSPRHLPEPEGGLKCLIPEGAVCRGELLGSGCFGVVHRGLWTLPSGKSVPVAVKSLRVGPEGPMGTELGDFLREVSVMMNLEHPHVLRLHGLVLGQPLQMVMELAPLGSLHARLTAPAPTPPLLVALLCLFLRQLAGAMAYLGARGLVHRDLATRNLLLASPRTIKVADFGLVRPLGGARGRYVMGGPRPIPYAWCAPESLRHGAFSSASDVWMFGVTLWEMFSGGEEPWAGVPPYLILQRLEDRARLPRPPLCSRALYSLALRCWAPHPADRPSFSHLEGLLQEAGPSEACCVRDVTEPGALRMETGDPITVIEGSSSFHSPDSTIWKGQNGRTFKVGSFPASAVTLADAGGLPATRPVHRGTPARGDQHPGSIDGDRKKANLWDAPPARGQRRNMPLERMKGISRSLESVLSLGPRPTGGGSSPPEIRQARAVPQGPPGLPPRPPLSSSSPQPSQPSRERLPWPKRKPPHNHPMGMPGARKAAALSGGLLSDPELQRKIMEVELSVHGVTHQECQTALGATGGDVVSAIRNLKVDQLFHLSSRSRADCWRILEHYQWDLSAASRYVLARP
Sequence of Serine/threonine-protein kinase 17A (Homo sapiens) (Q9UEE5 whole entry): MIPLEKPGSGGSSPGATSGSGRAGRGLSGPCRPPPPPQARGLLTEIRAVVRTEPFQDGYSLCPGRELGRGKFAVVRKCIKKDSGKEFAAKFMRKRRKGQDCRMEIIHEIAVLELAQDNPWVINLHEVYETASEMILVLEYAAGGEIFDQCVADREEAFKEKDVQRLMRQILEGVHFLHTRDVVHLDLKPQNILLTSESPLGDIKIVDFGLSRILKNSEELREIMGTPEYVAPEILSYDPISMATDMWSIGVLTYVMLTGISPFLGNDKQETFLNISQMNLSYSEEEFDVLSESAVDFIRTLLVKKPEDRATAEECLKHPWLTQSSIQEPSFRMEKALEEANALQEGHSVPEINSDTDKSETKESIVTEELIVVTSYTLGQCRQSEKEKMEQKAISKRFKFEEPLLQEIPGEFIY
Sequence of Mitogen-activated protein kinase kinase kinase 20 (Homo sapiens) (Q9NYL2 2-800 limits assumed): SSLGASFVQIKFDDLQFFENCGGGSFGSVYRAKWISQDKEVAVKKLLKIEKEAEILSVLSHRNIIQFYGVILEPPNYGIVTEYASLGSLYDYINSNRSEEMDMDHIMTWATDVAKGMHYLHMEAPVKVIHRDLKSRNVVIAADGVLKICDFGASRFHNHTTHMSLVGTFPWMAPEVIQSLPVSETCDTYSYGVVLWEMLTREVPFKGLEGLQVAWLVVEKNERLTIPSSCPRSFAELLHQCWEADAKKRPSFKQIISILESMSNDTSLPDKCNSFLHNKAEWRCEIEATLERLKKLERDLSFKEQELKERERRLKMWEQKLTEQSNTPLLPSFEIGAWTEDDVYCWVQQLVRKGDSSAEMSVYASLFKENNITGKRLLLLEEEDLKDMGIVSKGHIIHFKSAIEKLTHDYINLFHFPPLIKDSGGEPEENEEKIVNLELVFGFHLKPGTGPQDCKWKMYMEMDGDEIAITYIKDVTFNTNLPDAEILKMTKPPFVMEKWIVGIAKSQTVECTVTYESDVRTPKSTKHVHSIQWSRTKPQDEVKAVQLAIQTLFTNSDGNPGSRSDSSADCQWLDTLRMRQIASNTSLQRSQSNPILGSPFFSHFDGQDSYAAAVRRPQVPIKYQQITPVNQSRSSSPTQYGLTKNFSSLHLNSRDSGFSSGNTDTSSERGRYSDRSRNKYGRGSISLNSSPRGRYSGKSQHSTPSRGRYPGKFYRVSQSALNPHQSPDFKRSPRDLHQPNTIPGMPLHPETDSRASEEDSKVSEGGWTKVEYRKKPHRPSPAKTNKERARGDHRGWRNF
Sequence of 1-phosphatidylinositol 3-phosphate 5-kinase (Homo sapiens) (Q9Y2I7 whole entry): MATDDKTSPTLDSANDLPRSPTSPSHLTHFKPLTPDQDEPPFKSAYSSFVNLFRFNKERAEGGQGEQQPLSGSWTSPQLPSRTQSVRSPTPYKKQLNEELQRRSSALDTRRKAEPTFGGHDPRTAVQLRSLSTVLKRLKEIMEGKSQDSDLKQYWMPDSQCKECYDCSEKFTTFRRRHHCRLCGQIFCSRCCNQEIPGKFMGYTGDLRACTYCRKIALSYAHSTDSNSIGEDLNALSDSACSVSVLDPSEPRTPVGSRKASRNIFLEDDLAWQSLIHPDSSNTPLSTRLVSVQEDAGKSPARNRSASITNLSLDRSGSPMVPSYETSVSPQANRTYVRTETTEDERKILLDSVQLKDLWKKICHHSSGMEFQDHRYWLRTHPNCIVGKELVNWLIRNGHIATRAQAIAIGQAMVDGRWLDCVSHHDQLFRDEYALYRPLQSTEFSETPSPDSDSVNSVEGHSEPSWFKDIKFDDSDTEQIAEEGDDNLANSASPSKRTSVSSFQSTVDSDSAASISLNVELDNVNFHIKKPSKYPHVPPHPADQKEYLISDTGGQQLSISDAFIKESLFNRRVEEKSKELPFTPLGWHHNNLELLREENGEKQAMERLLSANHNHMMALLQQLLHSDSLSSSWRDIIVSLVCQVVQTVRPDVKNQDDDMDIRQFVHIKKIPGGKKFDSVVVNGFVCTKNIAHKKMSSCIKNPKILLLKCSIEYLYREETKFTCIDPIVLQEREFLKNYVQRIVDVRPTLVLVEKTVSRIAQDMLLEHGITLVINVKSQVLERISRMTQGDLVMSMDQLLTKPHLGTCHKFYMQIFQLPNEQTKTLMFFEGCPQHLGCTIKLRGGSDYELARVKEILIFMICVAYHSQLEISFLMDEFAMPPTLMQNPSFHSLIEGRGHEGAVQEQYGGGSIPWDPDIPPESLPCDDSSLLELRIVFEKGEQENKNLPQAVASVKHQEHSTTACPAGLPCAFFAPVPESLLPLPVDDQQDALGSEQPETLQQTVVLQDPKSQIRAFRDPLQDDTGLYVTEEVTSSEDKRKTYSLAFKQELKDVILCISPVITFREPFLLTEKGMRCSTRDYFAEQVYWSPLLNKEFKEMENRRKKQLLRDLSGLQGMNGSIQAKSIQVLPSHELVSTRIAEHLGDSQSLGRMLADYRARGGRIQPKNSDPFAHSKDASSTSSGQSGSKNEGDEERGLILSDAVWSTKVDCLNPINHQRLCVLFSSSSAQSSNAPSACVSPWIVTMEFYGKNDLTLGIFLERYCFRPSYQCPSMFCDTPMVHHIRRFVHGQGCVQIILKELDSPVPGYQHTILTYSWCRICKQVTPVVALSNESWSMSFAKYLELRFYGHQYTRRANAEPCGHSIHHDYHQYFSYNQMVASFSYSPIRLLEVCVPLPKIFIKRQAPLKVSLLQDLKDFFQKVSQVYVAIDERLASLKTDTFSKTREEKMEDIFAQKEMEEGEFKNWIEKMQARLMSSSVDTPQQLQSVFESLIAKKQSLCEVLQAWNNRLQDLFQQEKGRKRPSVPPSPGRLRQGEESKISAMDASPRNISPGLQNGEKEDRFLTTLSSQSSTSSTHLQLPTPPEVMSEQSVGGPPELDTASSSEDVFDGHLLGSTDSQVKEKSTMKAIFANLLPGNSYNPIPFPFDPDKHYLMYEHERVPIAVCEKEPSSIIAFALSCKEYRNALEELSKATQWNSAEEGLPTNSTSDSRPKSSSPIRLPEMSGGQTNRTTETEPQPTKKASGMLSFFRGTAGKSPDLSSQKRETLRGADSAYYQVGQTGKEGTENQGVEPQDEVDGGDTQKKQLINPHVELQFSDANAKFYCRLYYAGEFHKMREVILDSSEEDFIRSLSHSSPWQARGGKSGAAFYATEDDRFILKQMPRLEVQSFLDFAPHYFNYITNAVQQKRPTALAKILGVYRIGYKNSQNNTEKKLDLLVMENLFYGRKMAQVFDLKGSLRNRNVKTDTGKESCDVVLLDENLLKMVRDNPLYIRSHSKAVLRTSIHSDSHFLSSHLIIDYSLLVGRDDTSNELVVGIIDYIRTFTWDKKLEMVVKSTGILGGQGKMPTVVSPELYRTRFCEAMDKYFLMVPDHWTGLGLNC
Sequence of Casein kinase I isoform alpha-like (Homo sapiens) (Q8N752 whole entry, canonical isoform): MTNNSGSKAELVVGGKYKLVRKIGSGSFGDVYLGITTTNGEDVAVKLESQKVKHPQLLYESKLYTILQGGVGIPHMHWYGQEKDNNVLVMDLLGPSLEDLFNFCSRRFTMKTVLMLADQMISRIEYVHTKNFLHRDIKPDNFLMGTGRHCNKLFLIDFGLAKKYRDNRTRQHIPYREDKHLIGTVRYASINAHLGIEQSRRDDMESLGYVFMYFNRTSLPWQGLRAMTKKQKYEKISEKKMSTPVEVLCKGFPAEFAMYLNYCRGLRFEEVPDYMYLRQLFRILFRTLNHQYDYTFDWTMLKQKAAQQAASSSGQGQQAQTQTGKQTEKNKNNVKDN

O=C(NCc1ncc(C(F)(F)F)cc1Cl)c1ccc2c(c1)C1(CCS(=O)(=O)CC1)[C@@H](C1CC1)N2S(=O)(=O)c1ccc(F)cc1 [BAY-786]
inactive: residual activity [1] 78% | residual activity [2] 72% | residual activity [3] 66% | residual activity [4] 100% | residual activity [5] 83% | residual activity [6] 100% | residual activity [7] 84% | residual activity [8] 100% | residual activity [9] 100% | residual activity [10] 100% | residual activity [11] 85% | residual activity [12] 100% | residual activity [13] 90% | residual activity [14] 73% | residual activity [15] 100% | residual activity [16] 100% | residual activity [17] 95% | residual activity [18] 98% | residual activity [19] 76% | residual activity [20] 82% | residual activity [21] 82% | residual activity [22] 68% | residual activity [23] 100% | residual activity [24] 100% | residual activity [25] 78% | residual activity [26] 100% | residual activity [27] 83% | residual activity [28] 100% | residual activity [29] 100% | residual activity [30] 94% | residual activity [31] 80% | residual activity [32] 89% | residual activity [33] 97% | residual activity [34] 73% | residual activity [35] 100% | residual activity [36] 92% | residual activity [37] 84% | residual activity [38] 100% | residual activity [39] 72% | residual activity [40] 100% | residual activity [41] 88% | residual activity [42] 100% | residual activity [43] 92% | inhibition [44] 14.4%
active: inhibition [45] 52.7%

O=C(NCc1ncc(C(F)(F)F)cc1Cl)c1ccc2c(c1)C1(CCS(=O)(=O)CC1)[C@H](C1CC1)N2S(=O)(=O)c1ccc(F)cc1 [BAY-784]
inactive: residual activity [1] 88% | residual activity [2] 57% | residual activity [3] 66% | residual activity [4] 100% | residual activity [5] 100% | residual activity [6] 100% | residual activity [7] 100% | residual activity [8] 100% | residual activity [10] 95% | residual activity [11] 100% | residual activity [12] 100% | residual activity [13] 99% | residual activity [14] 100% | residual activity [15] 94% | residual activity [16] 100% | residual activity [17] 100% | residual activity [18] 86% | residual activity [19] 70% | residual activity [20] 76% | residual activity [21] 100% | residual activity [22] 100% | residual activity [23] 89% | residual activity [24] 54% | residual activity [25] 74% | residual activity [26] 100% | residual activity [27] 100% | residual activity [28] 100% | residual activity [29] 100% | residual activity [30] 100% | residual activity [31] 100% | residual activity [32] 91% | residual activity [33] 94% | residual activity [34] 84% | residual activity [35] 100% | residual activity [36] 100% | residual activity [37] 91% | residual activity [38] 95% | residual activity [39] 64% | residual activity [40] 96% | residual activity [41] 88% | residual activity [42] 100% | residual activity [43] 100% | inhibition [44] 18.1%
active: residual activity [9] 0% | inhibition [45] 74.9%
